Source: US8222422B2, “Crystal of benzimidazole compound” (Takeda Pharmaceutical Company Limited, priority 2008, dated 2012)
In brackets after ≈: the same amount, converted by molar mass.

Columns and labels:
Assay type in all cases: physicochemical
[1] = Stability Test (residual rate of the crystal after preservation, by HPLC); conditions: crystals in a brown glass bottle, preserved at 40° C. for 2 weeks
Protocol: Residual rate was measured by HPLC (YMC-Pack AQ-302 ODS 4.6 mm i.d.×150 mm, temperature: about 25° C., mobile phase: (A) water (B) acetonitrile:water:triethylamine=160:40:1, gradient program, detection wavelength: 285 nm).

[2] = Solubility Test, aqueous solution with pH 9.2; conditions: aqueous buffer, thermodynamic from solid, 10.75 mg almost dissolved when 13.5 mL was added
Protocol: To the crystals (10.75 mg) obtained in Example 6 was gradually added dropwise an aqueous solution with pH 9.2. The crystals were almost dissolved at the time point when 13.5 mL was added (solubility: 0.80 mg/mL).

[3] = Solubility Test, aqueous solution with pH 6.9; conditions: aqueous buffer, thermodynamic from solid, 8.87 mg almost dissolved when 35 mL was added
Protocol: To the crystals (8.87 mg) obtained in Example 6 was gradually added dropwise an aqueous solution with pH 6.9.

In the case of Cc1c(OCC(F)(F)F)ccnc1C[S@@+]([O-])c1nc2ccccc2[nH]1 [Example 6, (R)-2-[[[3-methyl-4-(2,2,2-trifluoroethoxy)-2-pyridyl]methyl]sulfinyl]benzimidazole], the residual rate [1] is reported as 100.7%, the solubility [2] is reported as 800 µg/mL (≈ 2170 µM) and the solubility [3] is reported as 250 µg/mL (≈ 677 µM).
